The values below come from patent US10758534B2 (Vertex Pharmaceuticals Incorporated, priority 2014, dated 2020).

T1 sequence (P13569 with tags, fused parts or gaps DEL508-508): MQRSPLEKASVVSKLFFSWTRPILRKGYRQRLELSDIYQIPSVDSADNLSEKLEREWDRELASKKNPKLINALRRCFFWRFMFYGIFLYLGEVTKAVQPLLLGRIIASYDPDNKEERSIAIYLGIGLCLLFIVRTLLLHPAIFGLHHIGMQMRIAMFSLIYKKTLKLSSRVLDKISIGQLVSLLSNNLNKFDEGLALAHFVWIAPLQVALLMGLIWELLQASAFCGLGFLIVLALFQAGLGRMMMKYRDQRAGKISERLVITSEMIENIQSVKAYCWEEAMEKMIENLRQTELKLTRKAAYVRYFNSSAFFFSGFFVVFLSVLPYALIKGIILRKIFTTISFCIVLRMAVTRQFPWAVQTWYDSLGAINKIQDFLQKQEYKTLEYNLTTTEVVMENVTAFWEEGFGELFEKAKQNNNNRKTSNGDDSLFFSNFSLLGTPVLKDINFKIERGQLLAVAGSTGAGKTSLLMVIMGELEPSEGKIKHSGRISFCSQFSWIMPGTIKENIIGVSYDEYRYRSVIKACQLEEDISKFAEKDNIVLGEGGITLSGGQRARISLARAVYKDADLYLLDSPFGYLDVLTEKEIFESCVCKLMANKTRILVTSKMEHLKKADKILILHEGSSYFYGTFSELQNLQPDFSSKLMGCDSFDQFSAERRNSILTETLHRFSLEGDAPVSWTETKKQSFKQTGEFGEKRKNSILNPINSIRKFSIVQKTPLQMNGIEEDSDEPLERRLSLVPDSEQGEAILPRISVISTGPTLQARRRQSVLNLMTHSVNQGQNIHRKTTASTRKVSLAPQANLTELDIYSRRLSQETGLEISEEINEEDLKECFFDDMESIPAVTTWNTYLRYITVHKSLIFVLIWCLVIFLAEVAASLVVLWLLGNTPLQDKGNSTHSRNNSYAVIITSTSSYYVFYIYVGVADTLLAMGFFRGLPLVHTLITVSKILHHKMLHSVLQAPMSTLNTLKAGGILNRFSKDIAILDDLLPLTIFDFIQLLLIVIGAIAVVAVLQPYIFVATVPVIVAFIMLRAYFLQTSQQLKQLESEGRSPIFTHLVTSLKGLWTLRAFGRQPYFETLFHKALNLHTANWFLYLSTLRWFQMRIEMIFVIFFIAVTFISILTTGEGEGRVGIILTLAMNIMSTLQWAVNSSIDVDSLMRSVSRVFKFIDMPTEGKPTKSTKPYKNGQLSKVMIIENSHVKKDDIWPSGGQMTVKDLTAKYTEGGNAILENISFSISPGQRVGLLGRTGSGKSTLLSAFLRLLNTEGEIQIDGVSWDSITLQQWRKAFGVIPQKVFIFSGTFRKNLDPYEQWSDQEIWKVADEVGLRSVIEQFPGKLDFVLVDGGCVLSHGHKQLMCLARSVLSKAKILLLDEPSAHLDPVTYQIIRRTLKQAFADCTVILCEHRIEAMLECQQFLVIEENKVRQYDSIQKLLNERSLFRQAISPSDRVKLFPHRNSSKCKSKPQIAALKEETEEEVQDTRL

The test concerns the target T1, F508del (Homo sapiens, UniProt P13569, DEL508-508).
T1 construct: expressed in transfected cells
The test can be described thus: Protocol 1: membrane potential optical assay (FLIPR III, voltage sensing dye), identification of potentiator compounds. The format is cell-based. Particulars: Table 3, compounds of Table 1. In outline: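 NIH 3T3 fibroblasts stably expressing F508del were cultured at 27° C for 24 hrs for temperature correction, then treated with compounds or DMSO and loaded with a voltage-sensing redistribution dye. Forskolin added with a Cl⁻ gradient activated the channel; membrane-potential fluorescence on FLIPR III reported increased gating.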
With `Cc1cc(C)c(Oc2ncc(-c3ccccc3)cc2C(=O)NS(=O)(=O)c2cccc(N)c2)c(C)c1` [Compound 1321, N-(3-aminophenyl)sulfonyl-5-phenyl-2-(2,4,6-trimethylphenoxy)pyridine-3-carboxamide], the EC30 entry is “++ (“++” means between 3 uM and 10 uM)”.

Take `CCN(CC)c1ccc(-c2ccc(C(=O)NS(=O)(=O)c3cccc(N)n3)c(N3CC(C)CC3(C)C)n2)cn1` (stereo not drawn) [Compound 796, N-[(6-amino-2-pyridyl)sulfonyl]-6-[6-(diethylamino)-3-pyridyl]-2-(2,2,4-trimethylpyrrolidin-1-yl)pyridine-3-carboxamide]: the EC30 entry is listed as “+++ (“+++” means <3 uM)”. Then `Cc1cc(C)c(Oc2nc(OC(C)C)ccc2C(=O)NS(=O)(=O)c2cccc(N)n2)c(C)c1` [Compound 968, N-[(6-amino-2-pyridyl)sulfonyl]-6-isopropoxy-2-(2,4,6-trimethylphenoxy)pyridine-3-carboxamide], with “+++ (“+++” means <3 uM)”; and `COc1cccc(S(=O)(=O)NC(=O)c2ccc(-c3cc(F)cc(OCC(C)C)c3)nc2N2CC(C)CC2(C)C)c1` (stereo not drawn) [Compound 1171, 6-(3-fluoro-5-isobutoxy-phenyl)-N-(3-methoxyphenyl)sulfonyl-2-(2,2,4-trimethylpyrrolidin-1-yl)pyridine-3-carboxamide], with “+++ (“+++” means <3 uM)”.

For `CCCOc1ccc(-c2ccc(C(=O)NS(=O)(=O)c3ccc[nH]c3=O)c(Oc3c(C)cc(C)cc3C)n2)cc1F` [Compound 1022, 6-(3-fluoro-4-propoxy-phenyl)-N-[(2-oxo-1H-pyridin-3-yl)sulfonyl]-2-(2,4,6-trimethylphenoxy)pyridine-3-carboxamide], the EC30 entry is “++ (“++” means between 3 uM and 10 uM)”. Then `COC[C@H]1CCCN1c1nc(-c2cc(F)cc(OCC(C)C)c2)ccc1C(=O)NS(=O)(=O)c1cccc(N)n1` [Compound 1149, N-[(6-amino-2-pyridyl)sulfonyl]-6-(3-fluoro-5-isobutoxy-phenyl)-2-[(2R)-2-(methoxymethyl)pyrrolidin-1-yl]pyridine-3-carboxamide], with “+++ (“+++” means <3 uM)”; and `COc1ncccc1-c1ccc(C(=O)NS(=O)(=O)c2cccnc2N)c(N2C[C@@H](C)CC2(C)C)n1` [Compound 1980, N-[(2-amino-3-pyridyl)sulfonyl]-6-(2-methoxy-3-pyridyl)-2-[(4S)-2,2,4-trimethylpyrrolidin-1-yl]pyridine-3-carboxamide], with “+++ (“+++” means <3 uM)”; and `CC(C)Oc1ccc(-c2ccc(C(=O)NS(=O)(=O)c3cccc(N)n3)c(N3CCCC(c4cccc(Cl)c4)C3)n2)cn1` (stereo not drawn) [Compound 1339, N-[(6-amino-2-pyridyl)sulfonyl]-2-[3-(3-chlorophenyl)-1-piperidyl]-6-(6-isopropoxy-3-pyridyl)pyridine-3-carboxamide], with “+++ (“+++” means <3 uM)”.

`CC1CN(c2nc(C(C)(C)C)c(C3=CCOCC3)cc2C(=O)NS(=O)(=O)c2cccc(N)n2)C(C)(C)C1` (stereo not drawn) [Compound 1495, N-[(6-amino-2-pyridyl)sulfonyl]-6-tert-butyl-5-(3,6-dihydro-2H-pyran-4-yl)-2-(2,2,4-trimethylpyrrolidin-1-yl)pyridine-3-carboxamide]: the EC30 result is recorded as “+++ (“+++” means <3 uM)”. To `Cc1cc(C)c(Oc2nc(-c3cccc(C#N)c3)ccc2C(=O)NS(=O)(=O)c2cccc(N)n2)c(C)c1` [Compound 886, N-[(6-amino-2-pyridyl)sulfonyl]-6-(3-cyanophenyl)-2-(2,4,6-trimethylphenoxy)pyridine-3-carboxamide] belongs “+++ (“+++” means <3 uM)”; to `C/C=C/COc1cccc(S(=O)(=O)NC(=O)c2cccnc2N2CC(C)CC2(C)C)n1` (stereo not drawn) [Compound 1881, N—[[6-[(E)-but-2-enoxy]-2-pyridyl]sulfonyl]-2-(2,2,4-trimethylpyrrolidin-1-yl)pyridine-3-carboxamide], “+++ (“+++” means <3 uM)”. Then `CC1CN(c2nc(C(C)(C)C)c(C3=CCC(C(=O)O)CC3)cc2C(=O)NS(=O)(=O)c2cccc(N)n2)C(C)(C)C1` (stereo not drawn) [Compound 1381, 4-[5-[(6-amino-2-pyridyl)sulfonylcarbamoyl]-2-tert-butyl-6-(2,2,4-trimethylpyrrolidin-1-yl)-3-pyridyl]cyclohex-3-ene-1-carboxylic acid], with “++ (“++” means between 3 uM and 10 uM)”; and `CCCCOc1ccc(-c2ccc(C(=O)NS(=O)(=O)c3ccc[nH]c3=O)c(Oc3c(C)cc(C)cc3C)n2)cc1F` [Compound 1187, 6-(4-butoxy-3-fluoro-phenyl)-N-[(2-oxo-1H-pyridin-3-yl)sulfonyl]-2-(2,4,6-trimethylphenoxy)pyridine-3-carboxamide], with “+++ (“+++” means <3 uM)”. Then `CC1CC(C)CN(c2cccc(S(=O)(=O)NC(=O)c3cccnc3N3CC(C)CC3(C)C)n2)C1` (stereo not drawn) [Compound 1749, N—[[6-(3,5-dimethyl-1-piperidyl)-2-pyridyl]sulfonyl]-2-(2,2,4-trimethylpyrrolidin-1-yl)pyridine-3-carboxamide], with “+++ (“+++” means <3 uM)”; and `CC(C)COc1cc(F)cc(-c2ccc(C(=O)NS(=O)(=O)c3ccn[nH]3)c(N3Cc4ccccc4C3)n2)c1` [Compound 981, 6-(3-fluoro-5-isobutoxy-phenyl)-2-isoindolin-2-yl-N-(1H-pyrazol-5-ylsulfonyl)pyridine-3-carboxamide], with “++ (“++” means between 3 uM and 10 uM)”; and `CCN(CCOC)c1cccc(S(=O)(=O)NC(=O)c2cccnc2N2CC(C)CC2(C)C)n1` (stereo not drawn) [Compound 1870, N—[[6-[ethyl(2-methoxyethyl)amino]-2-pyridyl]sulfonyl]-2-(2,2,4-trimethylpyrrolidin-1-yl)pyridine-3-carboxamide], with “++ (“++” means between 3 uM and 10 uM)”. As for `CC(C)COc1cc(F)cc(-c2ccc(C(=O)NS(=O)(=O)c3ccc(O)c(N)n3)c(N3C[C@@H](C)CC3(C)C)n2)c1` [Compound 1563, N-[(6-amino-5-hydroxy-2-pyridyl)sulfonyl]-6-(3-fluoro-5-isobutoxy-phenyl)-2-[(4S)-2,2,4-trimethylpyrrolidin-1-yl]pyridine-3-carboxamide], the EC30 entry is given as “+++ (“+++” means <3 uM)”.

`CC1CN(c2ncccc2C(=O)NS(=O)(=O)c2cccc(OCC3CCCO3)n2)C(C)(C)C1` (stereo not drawn) [Compound 1764, N—[[6-(tetrahydrofuran-2-ylmethoxy)-2-pyridyl]sulfonyl]-2-(2,2,4-trimethylpyrrolidin-1-yl)pyridine-3-carboxamide]: the EC30 result is “++ (“++” means between 3 uM and 10 uM)”. Turning to `CC(C)COc1cc(F)cc(-c2ccc(C(=O)NS(=O)(=O)c3cccc(N)n3)c(N3CCC(c4ccccc4)C3C)n2)c1` (stereo not drawn) [Compound 1319, N-[(6-amino-2-pyridyl)sulfonyl]-6-(3-fluoro-5-isobutoxy-phenyl)-2-(2-methyl-3-phenyl-pyrrolidin-1-yl)pyridine-3-carboxamide], the EC30 entry is reported as “+++ (“+++” means <3 uM)”. Then `CCOc1cc(F)cc(-c2ccc(C(=O)NS(=O)(=O)c3cccc(N)n3)c(Oc3c(C)cc(C)cc3C)n2)c1` [Compound 1255, N-[(6-amino-2-pyridyl)sulfonyl]-6-(3-ethoxy-5-fluoro-phenyl)-2-(2,4,6-trimethylphenoxy)pyridine-3-carboxamide], with “+++ (“+++” means <3 uM)”; and `COc1ccc(-c2cc(C(=O)NS(=O)(=O)c3cccc(N)c3)n(C(C)c3ccccc3)n2)cc1` (stereo not drawn) [Compound 1024, N-(3-aminophenyl)sulfonyl-5-(4-methoxyphenyl)-2-(1-phenylethyl)pyrazole-3-carboxamide], with “++ (“++” means between 3 uM and 10 uM)”; and `CC(C)COc1cc(F)cc(-c2ccc(C(=O)NS(=O)(=O)c3cccc(N)n3)c(OCCC3CCOCC3)n2)c1` [Compound 1579, N-[(6-amino-2-pyridyl)sulfonyl]-6-(3-fluoro-5-isobutoxy-phenyl)-2-(2-tetrahydropyran-4-ylethoxy)pyridine-3-carboxamide], with “+++ (“+++” means <3 uM)”. With `Cc1cc(OC(C)C)nc(-c2ccc(C(=O)NS(=O)(=O)c3cccc(N)n3)c(N3C[C@@H](C)CC3(C)C)n2)c1` [Compound 1637, N-[(6-amino-2-pyridyl)sulfonyl]-6-(6-isopropoxy-4-methyl-2-pyridyl)-2-[(4S)-2,2,4-trimethylpyrrolidin-1-yl]pyridine-3-carboxamide], the EC30 result is reported as “+++ (“+++” means <3 uM)”.

For the molecule `C[C@@H]1CN(c2ncc(F)cc2C(=O)NS(=O)(=O)c2cccc(N)n2)C(C)(C)C1` [Compound 1607, N-[(6-amino-2-pyridyl)sulfonyl]-5-fluoro-2-[(4S)-2,2,4-trimethylpyrrolidin-1-yl]pyridine-3-carboxamide], the EC30 result is “++ (“++” means between 3 uM and 10 uM)”. Then `COC[C@H]1C[C@@H]1c1ccc(C(=O)NS(=O)(=O)c2cccc(N)n2)c(N2C[C@@H](C)CC2(C)C)n1` [Compound 1575, N-[(6-amino-2-pyridyl)sulfonyl]-6-[(1S,2S)-2-(methoxymethyl)cyclopropyl]-2-[(4S)-2,2,4-trimethylpyrrolidin-1-yl]pyridine-3-carboxamide], with “++ (“++” means between 3 uM and 10 uM)”.

Consider `CC(C)COc1cc(F)cc(-c2ccc(C(=O)NS(=O)(=O)c3cccc(N)n3)c(N3C[C@H]4CC[C@@H]3C4)n2)c1` [Compound 924, N-[(6-amino-2-pyridyl)sulfonyl]-2-[(1S,4R)-3-azabicyclo[2.2.1]heptan-3-yl]-6-(3-fluoro-5-isobutoxy-phenyl)pyridine-3-carboxamide], for which the EC30 result is “+++ (“+++” means <3 uM)”. `CC1CN(c2ncccc2C(=O)NS(=O)(=O)c2cccc(OCC3CCC=CO3)n2)C(C)(C)C1` (stereo not drawn) [Compound 1874, N—[[6-(3,4-dihydro-2H-pyran-2-ylmethoxy)-2-pyridyl]sulfonyl]-2-(2,2,4-trimethylpyrrolidin-1-yl)pyridine-3-carboxamide]: the EC30 result was “+++ (“+++” means <3 uM)”.
